How the values were obtained:
[1] = Walker carcinosarcoma 256 tumour growth inhibition in rats; type: in vivo, Sprague-Dawley rats; parameters: ED50: unit: mg/kg; conditions: rat, in vivo, po, daily p.o. for 5 days
From the text: (§1) LD50 is the dose that causes a 50 percent lethality of the animals, and ED50 is the dose that causes a 50 percent reduction of tumour size.
(§2) The experimental design and the interpretation of the results are in accordance with the standards set by the CCNSC (Cancer Chemotherpy Reports, January 1959 and December 1962).
(§3) Walker carcinosarcoma 256.
(§4) Experimental animals: Sprague-Dawley rats.
(§5) Tumour implant: Tumour pieces with 2-4 mm diameter, sub-
(§6) Therapy: Daily p.o. administration for 5 days starting on
(§7) the day following implantation.
(§8) Termination: The animals are killed on the 9th day.
(§9) Evaluation: Weights of tumours of test animals are compared
(§10) with those of control animals.

[2] = tested on: Walker carcinosarcoma 256; assay: as above; type: in vivo, Sprague-Dawley rats; parameters: ED50: unit: mg/kg; conditions: daily p.o. for 5 days; for antitumour activity: result in words
From the text: as §1, §2, §3, §4, §5, §6, §7, §8, §9, §10

[3] = tested on: Ehrlich ascites tumour, ELD hyperdiploid; assay: Ehrlich ascites tumour, ELD hyperdiploid (46 chromosomes), growth inhibition in mice; type: in vivo, SPF NMRI mice; conditions: one i.p. injection; for antitumour activity: result in words
From the text: as §2
Ehrlich ascites tumour, ELD hyperdiploid
Experimental animals: SPF NMRI mice.
Tumour implant: 2 × 10^6 tumour cells i.p.
(§11) Therapy: One injection i.p. on the day following implanta-
(§12) Termination: The animals are killed on the 8th day.
Evaluation: Weight of tumours of test animals compared with
those of control animals.

[4] = Hepatome AH 130 tumour growth inhibition in rats; type: in vivo, Sprague-Dawley rats; parameters: ED50: unit not given here; conditions: rat, in vivo, ip, one i.p. injection; for LD50: dose causing 50 percent lethality, column head not given; for selectivity ratio: read-out: T.I. (LD50/ED50)
From the text: as §1, §2, §4
(§13) Tumour implant: 5 × 10^6 tumour cells i.p.
as §11, §12, §9, §10

Hepatome AH 130 = Hepatome AH 130 tumour growth inhibition in rats; type: in vivo, Sprague-Dawley rats; parameters: ED50: unit not given here; conditions: one i.p. injection; for ED50: dose causing 50 percent reduction of tumour size, killed 8th day
From the text: as §1, §2, §4, §13, §11, §12, §9, §10

[5] = biological target: T1, rabbit uterus cytosol progesterone receptor (Oryctolagus cuniculus, UniProt P06186); assay: Relative affinity to rabbit uterus cytosol progesterone receptor (3H-progesterone competition); type: binding; conditions: compared to progesterone; 50% competition with 3H-progesterone; 16-18 hours at 4° C.
T1 construct: One ml portions of the supernatant (rabbit uterus cytosol) were pipetted into small centrifuge tubes of glass; from tissue; host or cells: uterus cytosol (105,000×g supernatant) of female rabbits pretreated with polyestradiol phosphate
T1 sequence (P06186 1-930): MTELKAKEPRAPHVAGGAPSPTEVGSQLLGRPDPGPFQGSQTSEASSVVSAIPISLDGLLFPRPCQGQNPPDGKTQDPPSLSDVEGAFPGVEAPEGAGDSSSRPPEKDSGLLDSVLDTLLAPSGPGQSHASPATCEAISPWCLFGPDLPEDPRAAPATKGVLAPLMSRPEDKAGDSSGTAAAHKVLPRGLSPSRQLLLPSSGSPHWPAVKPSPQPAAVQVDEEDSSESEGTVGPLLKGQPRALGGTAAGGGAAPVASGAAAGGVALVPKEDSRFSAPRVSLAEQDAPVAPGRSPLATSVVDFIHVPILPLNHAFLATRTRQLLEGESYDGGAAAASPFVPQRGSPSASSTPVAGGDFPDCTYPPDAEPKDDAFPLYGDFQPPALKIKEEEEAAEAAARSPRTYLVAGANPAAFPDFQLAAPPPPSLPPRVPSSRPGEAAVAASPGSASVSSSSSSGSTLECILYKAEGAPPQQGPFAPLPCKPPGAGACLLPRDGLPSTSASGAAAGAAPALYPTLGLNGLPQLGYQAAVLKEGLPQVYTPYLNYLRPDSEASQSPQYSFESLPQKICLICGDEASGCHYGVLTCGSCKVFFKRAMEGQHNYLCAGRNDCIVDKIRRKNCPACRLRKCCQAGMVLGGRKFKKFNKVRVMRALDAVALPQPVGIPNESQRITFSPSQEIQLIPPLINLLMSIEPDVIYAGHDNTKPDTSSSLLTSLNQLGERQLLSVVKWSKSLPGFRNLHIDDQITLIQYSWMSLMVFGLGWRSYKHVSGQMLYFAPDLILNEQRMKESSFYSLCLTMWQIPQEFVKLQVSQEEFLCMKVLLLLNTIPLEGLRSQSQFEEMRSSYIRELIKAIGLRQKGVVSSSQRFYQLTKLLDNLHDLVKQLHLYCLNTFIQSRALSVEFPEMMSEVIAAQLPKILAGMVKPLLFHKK
Procedure: This example illustrates the compound's relative affinity to rabbit uterus cytosol progesterone receptor compared with progesterone. The method used for this purpose is a modification of methods already described by Kontula, K. et al. (Acta Endocrinol. 78 (1975) 574) and Terenius, L. (Steroids 23 (1974) 909) among others.
Female rabbits (3-4 pounds) from Knut Larsen, Uddevalla, Sweden, were injected i.m. with 1 mg Estradurin (polyestradiol phosphate, 1 mg/ml saline, AB Leo, Sweden). After one week, the animals were killed and the uteri were immediately removed, chilled and cut free from connective tissues. All the following operations were performed at 0°-4° C. The uteri were cut into small pieces and washed several times with 3 vol. of buffer at pH 7.4 containing 50 MM TRIS-HCl, 1.5 mM EDTA, 3 mM NaN3, 2 mM dithiothreitol, and 25% glycerol (by vol.). The tissue was homogenized in the same buffer (3 vol.) with four 15-s bursts at rheostat setting 36-37 of an Ultra Turrax (Janke and Kunkel KG, Staufen, The Federal Republic of Germany). The homogenate was centifuged in a Sorvall GLC-2 centrifuge for 15 min at 600×g. The supernatanate was recentrifuged at 105,000×g for 60 min in a Beckman ultracentrifuge model LB-65-B with rotor SW 56.
One ml portions of the supernatant (rabbit uterus cytosol) were pipetted into small centrifuge tubes of glass and were kept at -70° C. until used. The protein content was determined by the method of Lowry (J. Biol. Chem. 193 (1951) 265).
10.0 mg of each compound was dissolved in 10.0 ml 99.5% ethanol. 100 μl of this standard solution was diluted to 5.0 ml ethanol/glycerol 1:1 (v/v). The ethanol was evaporated by blowing air at 40° C. on the solution. The volume was then adjusted to 5.0 ml by adding buffer without glycerol.
The compounds were diluted with glycerol/buffer 1:1 to final concentrations between 10^-8 -10^-5 M in total 300 μl incubation media. 100 μl of each compound and of each dilution were incubated in small centrifuge tubes (2 ml) together with 100 μl (10 pg) ^3 H-progesterone (1,2,6,7-3H-progesterone, 47.8 Ci/mMol, The Radiochemical Centre, Amersham, England) and 100 μl cytosol adjusted with buffer to a final concentration of about […]. The incubations were carried out for 16-18 hours at 4° C.
The separation of bound from free radioactivity was carried out at 0° C. using the dextran coated charcoal technique (DCC). To each incubation tube was added 0.5 ml DCC-suspension (0.05% dextran-70, Pharmacia, Uppsala, Sweden and 0.5% Norit A, Sigma, Saint Louis, Missouri, U.S.A.) The tubes were agitated 2-3 times during 10 minutes whereupon they were centrifuged at 100×g for five minutes. The supernatantes were decanted directly into Scintillation vials (polyethene, Packard) containing 10 ml InstaGel (Packard). The radioactivity was counted in a Philip's liquid scintillation spectrometer Model PW 4510/00 with external standard and automatic quenching correction.
To incubation tubes were added 100 μl cytosol, 100 μl ^3 H-progesterone (10 pg) and 100 μl of different dilutions of non-radioactive progesterone in glycerol/buffer 1:1 ranging from 0-10^4 pg/100 μl. The tubes were incubated parallel with the compounds described above. The radioactivity was calculated by substracting the counted radioactivity in the incubation tubes with the radioactivity counted in incubations tubes in which the cytosol was replaced with buffer (100 μl).
The concentration of non-radioactive progesterone [P]i which competes for 50% of bound radioactive progesterone was calculated from the standard curve constructed [B] i/[B] o=0.5 where [B]i is the bound radioactivity at different concentrations of non-radioactive progesterone and [B]o is the bound radioactivity at progesterone concentration zero.
In the same manner, curves were constructed for each compound X and the concentration for each compound which competes for 50% with bound ^3 H-progesterone ([X]50) was calculated. […]

Row | Structure (SMILES) | LD50 ([1]; dose causing 50 percent lethality) | selectivity ratio ([1]; read-out: T.I. (LD50/ED50)) | ED50 ([2]; dose causing 50 percent reduction of tumour size, killed 9th day) | antitumour activity [3] | LD50 [4] | selectivity ratio [4] | ED50 (Hepatome AH 130) | antitumour activity [2] | antitumour activity (Hepatome AH 130; result in words) | relative binding affinity (RBA) [5] | Mortality ([3]; 1000 mg/kg) | Tumour weight Treated/Control ([3]; 1000 mg/kg, 8th day)
1 | CC(=O)[C@@]1(OC(=O)CCCOC(=O)Cc2ccc(N(CCCl)CCCl)cc2)CC[C@H]2[C@@H]3CCC4=CC(=O)CC[C@]4(C)[C@H]3CC[C@@]21C [3:4, 17α-/4-(4-(N,N-bis(2-chloroethyl)amino)phenylacetoxyy)butanoyloxy/pregn-4-ene-3,20-dione] | 80 mg/kg | 20 | 4 | exhibit antitumour activity | 50 mg/kg | 25 | 2 |  |  |  |  | 
2 | CC(=O)[C@@]1(OC(=O)COC(=O)CSc2ccc(N(CCCl)CCCl)cc2)CC[C@H]2[C@@H]3CCC4=CC(=O)CC[C@]4(C)[C@H]3CC[C@@]21C [3:5, 17α-/4-(N,N-bis(2-chloroethyl)amino)phenylthioacetoxyacetoxy/pregn-4-ene-3,20-dione] |  |  |  | exhibit antitumour activity | > 250 mg/kg | > 5 | 50 | exhibit antitumour activity |  |  |  | 
3 | CC(=O)[C@@]1(OC(=O)COC(=O)c2cccc(N(CCCl)CCCl)c2)CC[C@H]2[C@@H]3CCC4=CC(=O)CC[C@]4(C)[C@H]3CC[C@@]21C [3:6, 17α-/3-(N,N-bis(2-chloroethyl)amino)benzoyloxyacetoxy/pregn-4-ene-3,20-dione] |  |  |  | exhibit antitumour activity |  |  |  | exhibit antitumour activity | exhibit antitumour activity |  |  | 
4 | CC(=O)N[C@@H](Cc1ccc(N(CCCl)CCCl)cc1)C(=O)OCC(=O)O[C@]1(C(C)=O)CC[C@H]2[C@@H]3CCC4=CC(=O)CC[C@]4(C)[C@H]3CC[C@@]21C [3:14, 17-[(2S)-2-acetamido-3-(4-(N,N-bis(2-chloroethyl)amino)phenyl)propanoyloxyacetoxy]pregn-4-ene-3,20-dione] |  |  |  | exhibit antitumour activity |  |  |  | exhibit antitumour activity |  |  |  | 
5 | CC(=O)[C@@]1(OC(=O)COC(=O)CCCc2ccc(N(CCCl)CCCl)cc2)CC[C@H]2[C@@H]3C[C@H](C)C4=CC(=O)CC[C@]4(C)[C@H]3CC[C@@]21C [3:16, 17α-[4-(4-(N,N-bis(2-chloroethyl)amino)phenyl)butanoyloxyacetoxy]-6α-methylpregn-4-ene-3,20-dione] |  |  |  | exhibit antitumour activity |  |  |  | exhibit antitumour activity |  |  |  | 
6 | CC(=O)[C@@]1(OC(=O)CCCNC(=O)Cc2ccc(N(CCCl)CCCl)cc2)CC[C@H]2[C@@H]3CCC4=CC(=O)CC[C@]4(C)[C@H]3CC[C@@]21C [6:1, 17α-/4-(4-(N,N-bis(2-chloroethyl)amino)phenylacetylamino)butanoyloxy/pregn-4-ene-3,20-dione] |  |  |  | exhibit antitumour activity |  |  |  | exhibit antitumour activity |  |  |  | 
7 | CC(=O)[C@@]1(OC(=O)CCCOC(=O)c2ccc(C)c(N(CCCl)CCCl)c2)CC[C@H]2[C@@H]3CCC4=CC(=O)CC[C@]4(C)[C@H]3CC[C@@]21C [7:4, 17α-/4-(3-(N,N-bis(2-chloroethyl)amino)-4-methylbenzoyloxy)butanoyloxy/pregn-4-ene-3,20-dione] |  |  |  | exhibit antitumour activity | > 250 mg/kg | > 15 | 16 | exhibit antitumour activity |  | 0.9% |  | 
8 | CC(=O)[C@@]1(OC(=O)CNC(=O)CCCc2ccc(N(CCCl)CCCl)cc2)CC[C@H]2[C@@H]3CCC4=CC(=O)CC[C@]4(C)[C@H]3CC[C@@]21C [Compound 4:1, 17α-/4-(4-(N,N-bis(2-chloroethyl)amino)phenyl)butanoylaminoacetoxy/pregn-4-ene-3,20-dione] |  |  |  | exhibit antitumour activity | > 250 mg/kg | > 2 | 125 | exhibit antitumour activity |  | 1.1% |  | 
9 | CC(=O)[C@@]1(OC(=O)COC(=O)Nc2ccc(N(CCCl)CCCl)cc2)CC[C@H]2[C@@H]3CCC4=CC(=O)CC[C@]4(C)[C@H]3CC[C@@]21C [Compound 5:1, 17α-/4-(N,N-bis(2-chloroethyl)amino)phenylcarbamoyloxyacetoxy/pregn-4-ene-3,20-dione] |  |  |  | exhibit antitumour activity | > 250 mg/kg | > 8 | 30 | exhibit antitumour activity |  | 15.8% | 0/12 | 1%

Source: patent publication US4177269A, “Novel 17-esters of 17α-hydroxy gestogens, compositions containing such compounds, processes for their preparation and methods of treatment therewith” (Aktiebolaget Leo, priority 1976, dated 1979)
